From the NIST ThermoML archive (doi:10.1016/j.jct.2016.06.020)
± gives the expanded uncertainty stated by the source.

Key:
[1] = Crystal; DTA
[2] = Molar enthalpy of transition or fusion; details: Crystal; DSC

Normal melting temperature [1]: 118.6 ± 0.6 °C
Molar enthalpy of transition or fusion [2]: 4.97 ± 0.167 kcal/mol
SMILES: CCN1C(=O)N(C)[C@@H]2[C@H]1N(C)C(=O)N2CC (racemic)
